# Measured values as given in PubChem BioAssay AID278 (DTP/NCI, 2004).
# “And” between values parts separate entries of the source, which are not always exact repeats. Equal values may be shown once. Records with an inconclusive call do not appear.
# Tested on: nude mice, A549 intrarenal xenograft, tumor weight change
# Test: NCI In Vivo Anticancer Drug Screen. Data for tumor model A549 Human Adenocarcinoma of Lung with characteristics of Type II Alveolar Epithelial cells (intrarenal inoculation) in NU/NU BALB/C (nude) mice
# Settings: endpoint: mean tumor weight change, higher = larger tumour
# Outline: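 Activity is expressed as T/C: the treated-group value over the vehicle-treated control value. The measure was survival or tumor size in mice carrying transplantable tumors.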
# [1] = dose: 150.0 mg/kg/injection, schedule: Q04DX003 (ip), vehicle: Klucel (hydroxypropylcellulose) (HPC)
# [2] = dose: 300.0 mg/kg/injection, schedule: Q04DX003 (ip), vehicle: Klucel (hydroxypropylcellulose) (HPC)
# [3] = dose: 600.0 mg/kg/injection, schedule: Q04DX003 (ip), vehicle: Klucel (hydroxypropylcellulose) (HPC)
# [4] = dose: 150.0 mg/kg/injection, schedule: Q04DX003 (ip), vehicle: DMSO
# [5] = dose: 300.0 mg/kg/injection, schedule: Q04DX003 (ip), vehicle: DMSO
# [6] = dose: 12.5 mg/kg/injection, schedule: Q04DX003 (ip), vehicle: saline with Tween-80
# [7] = dose: 25.0 mg/kg/injection, schedule: Q04DX003 (ip), vehicle: saline with Tween-80
# [8] = dose: 50.0 mg/kg/injection, schedule: Q04DX003 (ip), vehicle: saline with Tween-80
# [9] = dose: 150.0 mg/kg/injection, schedule: Q04DX003 (ip), vehicle: saline with Tween-80
# [10] = dose: 300.0 mg/kg/injection, schedule: Q04DX003 (ip), vehicle: saline with Tween-80
# [11] = dose: 30.0 mg/kg/injection, schedule: Q04DX003 (ip), vehicle: saline
# [12] = dose: 50.0 mg/kg/injection, schedule: Q04DX003 (ip), vehicle: saline
# [13] = dose: 60.0 mg/kg/injection, schedule: Q04DX003 (ip), vehicle: saline
# [14] = dose: 50.0 mg/kg/injection, schedule: Q04DX003 (ip), vehicle: Klucel (hydroxypropylcellulose) (HPC)
# [15] = dose: 100.0 mg/kg/injection, schedule: Q04DX003 (ip), vehicle: Klucel (hydroxypropylcellulose) (HPC)
smiles,measurement,setting,value
CCOC(=O)/C=C/C(=O)N1CCN(C(=O)/C=C/C(=O)OCC)C(C)C1 (stereo unspecified),T/C,[1],50 % of control
same,T/C,[2],71 % of control
same,T/C,[3],49 % of control
O=C(O)[C@H](Cc1ccccc1)N1C(=O)c2ccccc2C1=O,T/C,[4],94 % of control
same,T/C,[5],77 % of control
same,T/C,"dose: 600.0 mg/kg/injection, schedule: Q04DX003 (ip), vehicle: DMSO",47 % of control
C/C(=N\NC(=S)N1CC2CCC(CC2)C1)c1nccs1,T/C,[6],62 % of control
same,T/C,[7],47 % of control
same,T/C,[8],32 % of control
Nc1ccc2ccc(NS(=O)(=O)N3CCCCC3)cc2c1,T/C,[9],94 % of control
same,T/C,[10],60 % of control
same,T/C,"dose: 600.0 mg/kg/injection, schedule: Q04DX003 (ip), vehicle: saline with Tween-80",32 % of control
COc1cccc2c1C(=O)c1c(O)c3c(c(O)c1C2=O)C[C@@](O)(C(=O)CO)C[C@@H]3OC1CC(N)C(O)C(C)O1 (stereo partly specified),T/C,"dose: 2.0 mg/kg/injection, schedule: Q04DX003 (ip), vehicle: saline",11 % of control and 13 % of control and 25 % of control
same,T/C,"dose: 4.0 mg/kg/injection, schedule: Q04DX003 (ip), vehicle: saline",9 % of control and 13 % of control and 20 % of control
same,T/C,"dose: 8.0 mg/kg/injection, schedule: Q04DX003 (ip), vehicle: saline",7 % of control and -9 % of control and -8 % of control
O=S(=O)(CCCCl)SCCCCl,T/C,"dose: 40.0 mg/kg/injection, schedule: Q04DX003 (ip), vehicle: suspension in saline",81 % of control
same,T/C,"dose: 80.0 mg/kg/injection, schedule: Q04DX003 (ip), vehicle: suspension in saline",86 % of control
same,T/C,"dose: 160.0 mg/kg/injection, schedule: Q04DX003 (ip), vehicle: suspension in saline",105 % of control
same,T/C,"dose: 320.0 mg/kg/injection, schedule: Q04DX003 (ip), vehicle: suspension in saline",112 % of control
CCCCNc1ccc2nnc(C)n2n1,T/C,"dose: 75.0 mg/kg/injection, schedule: Q04DX003 (ip), vehicle: DMSO",75 % of control
same,T/C,[4],19 % of control
same,T/C,[5],65 % of control
COc1cccc2c1C(=O)c1c(O)c3c(c(O)c1C2=O)C[C@](O)(C(=O)CO)CC3OC1CC(N)C(OC2CCCCO2)C(C)O1 (stereo partly specified),T/C,"dose: 1.88 mg/kg/injection, schedule: Q04DX003 (ip), vehicle: water",35 % of control
same,T/C,"dose: 3.75 mg/kg/injection, schedule: Q04DX003 (ip), vehicle: water",74 % of control
same,T/C,"dose: 7.5 mg/kg/injection, schedule: Q04DX003 (ip), vehicle: water",28 % of control
same,T/C,"dose: 15.0 mg/kg/injection, schedule: Q04DX003 (ip), vehicle: water",4 % of control
O=C(Nc1cccc(O)c1)C(Cl)=C(Cl)Cl,T/C,"dose: 18.0 mg/kg/injection, schedule: Q04DX003 (ip), vehicle: other",46 % of control
same,T/C,"dose: 25.0 mg/kg/injection, schedule: Q04DX003 (ip), vehicle: DMSO",108 % of control
same,T/C,"dose: 30.0 mg/kg/injection, schedule: Q04DX003 (ip), vehicle: other",50 % of control and 74 % of control
same,T/C,"dose: 50.0 mg/kg/injection, schedule: Q04DX003 (ip), vehicle: DMSO",18 % of control
same,T/C,"dose: 50.0 mg/kg/injection, schedule: Q04DX003 (ip), vehicle: other",76 % of control
COc1cccc2c1C(CO)N1C(C#N)C3CC(C(=O)O)C(C1C2)N3C (stereo unspecified),T/C,"dose: 3.75 mg/kg/injection, schedule: Q04DX003 (ip), vehicle: saline",24 % of control
same,T/C,"dose: 6.25 mg/kg/injection, schedule: Q04DX003 (ip), vehicle: saline",32 % of control
same,T/C,"dose: 7.5 mg/kg/injection, schedule: Q04DX003 (ip), vehicle: saline with Tween-80",64 % of control
same,T/C,"dose: 7.5 mg/kg/injection, schedule: Q04DX003 (ip), vehicle: saline",73 % of control
same,T/C,"dose: 12.5 mg/kg/injection, schedule: Q04DX003 (ip), vehicle: saline",76 % of control
same,T/C,"dose: 15.0 mg/kg/injection, schedule: Q04DX003 (ip), vehicle: saline with Tween-80",57 % of control
same,T/C,"dose: 15.0 mg/kg/injection, schedule: Q04DX003 (ip), vehicle: saline",59 % of control
same,T/C,"dose: 25.0 mg/kg/injection, schedule: Q04DX003 (ip), vehicle: saline",33 % of control
same,T/C,"dose: 30.0 mg/kg/injection, schedule: Q04DX003 (ip), vehicle: saline with Tween-80",59 % of control
same,T/C,[11],39 % of control
same,T/C,[12],52 % of control
same,T/C,[13],17 % of control
COc1ccc(C(C)c2cc3c(cc2OC)OCO3)cc1 (stereo unspecified),T/C,[6],17 % of control
same,T/C,[7],18 % of control and 43 % of control
same,T/C,[8],33 % of control
COC(=O)NC1C(C)OC(OC2C/C=C(/C)C3C=CC4C(OC5CC(OC6CC(OC7CC(O)C(O)C(C)O7)C(OC7CC(O)C(OC)C(C)O7)C(C)O6)C(O)C(C)O5)C(C)CC(C)C4C3(C)/C(O)=C3\C(=O)OC4(CC(C)C(CO)=CC4/C=C\2C)C3=O)CC1(C)[N+](=O)[O-] (stereo unspecified),T/C,"dose: 9.38 mg/kg/injection, schedule: Q04DX003 (ip), vehicle: water",69 % of control
same,T/C,"dose: 18.75 mg/kg/injection, schedule: Q04DX003 (ip), vehicle: water",58 % of control
same,T/C,"dose: 37.5 mg/kg/injection, schedule: Q04DX003 (ip), vehicle: water",76 % of control
N#Cc1c(N)[nH]c2ccc(Sc3ccccc3)cc12,T/C,[11],106 % of control
same,T/C,[13],42 % of control
same,T/C,"dose: 240.0 mg/kg/injection, schedule: Q04DX003 (ip), vehicle: saline",49 % of control
CCCCNP1(NCCCC)=NP(NCCCC)(NCCCC)=NP(NCCCC)(NCCCC)=NP(NCCCC)(NCCCC)=N1,T/C,[9],111 % of control
same,T/C,[10],44 % of control
NC(N)=NS(=O)(=O)c1ccc(NCc2c3ccccc3nc3ccccc23)cc1,T/C,[1],4 % of control
same,T/C,[2],10 % of control
same,T/C,[3],-10 % of control
same,T/C,"dose: 1200.0 mg/kg/injection, schedule: Q04DX003 (ip), vehicle: Klucel (hydroxypropylcellulose) (HPC)",-7 % of control
CO[C@H](/C(C)=C/C=C/C(C)=C/c1coc(C)n1)[C@H](C)[C@H]1C[C@@H](O)[C@@]2(C)O[C@H]2/C=C/[C@@H](C)[C@@H]2C[C@@H](CC(=O)O2)C[C@H]2O[C@@H]2C(=O)O1,T/C,"dose: 0.07 mg/kg/injection, schedule: Q04DX003 (ip), vehicle: other",71 % of control
same,T/C,"dose: 0.12 mg/kg/injection, schedule: Q04DX003 (ip), vehicle: other",54 % of control
same,T/C,"dose: 0.13 mg/kg/injection, schedule: Q01DX009 (ip), vehicle: Klucel (hydroxypropylcellulose) (HPC)",54 % of control
same,T/C,"dose: 0.18 mg/kg/injection, schedule: Q04DX003 (ip), vehicle: Klucel (hydroxypropylcellulose) (HPC)",57 % of control
same,T/C,"dose: 0.2 mg/kg/injection, schedule: Q01DX009 (ip), vehicle: Klucel (hydroxypropylcellulose) (HPC)",15 % of control
same,T/C,"dose: 0.2 mg/kg/injection, schedule: Q04DX003 (ip), vehicle: other",86 % of control
same,T/C,"dose: 0.3 mg/kg/injection, schedule: Q01DX009 (ip), vehicle: Klucel (hydroxypropylcellulose) (HPC)",38 % of control
same,T/C,"dose: 0.3 mg/kg/injection, schedule: Q04DX003 (ip), vehicle: Klucel (hydroxypropylcellulose) (HPC)",41 % of control
same,T/C,"dose: 0.33 mg/kg/injection, schedule: Q04DX003 (ip), vehicle: other",21 % of control
same,T/C,"dose: 0.5 mg/kg/injection, schedule: Q04DX003 (ip), vehicle: Klucel (hydroxypropylcellulose) (HPC)",26 % of control
same,T/C,"dose: 0.83 mg/kg/injection, schedule: Q04DX003 (ip), vehicle: Klucel (hydroxypropylcellulose) (HPC)",21 % of control
CN(C)c1ccc2c(Nc3ccc(NS(C)(=O)=O)cc3)c3ccc(N(C)C)cc3nc2c1,T/C,[14],116 % of control
same,T/C,[15],39 % of control
same,T/C,"dose: 200.0 mg/kg/injection, schedule: Q04DX003 (ip), vehicle: Klucel (hydroxypropylcellulose) (HPC)",41 % of control
COc1ccc(C=C(C(=O)CCN(C)C)C(=O)CCN(C)C)cc1,T/C,[12],96 % of control
same,T/C,"dose: 200.0 mg/kg/injection, schedule: Q04DX003 (ip), vehicle: saline",101 % of control
O=c1[nH]cnc2c1cnn2CN1CCOCC1,T/C,[14],166 % of control
same,T/C,[15],72 % of control
Cc1ccoc1,T/C,[8],78 % of control
same,T/C,"dose: 100.0 mg/kg/injection, schedule: Q04DX003 (ip), vehicle: saline with Tween-80",89 % of control
same,T/C,"dose: 200.0 mg/kg/injection, schedule: Q04DX003 (ip), vehicle: saline with Tween-80",75 % of control
COc1cc(C(C)c2cc3c(cc2OCCO)OCO3)cc(OC)c1OC (stereo unspecified),T/C,"dose: 125.0 mg/kg/injection, schedule: Q04DX003 (ip), vehicle: suspension in saline",117 % of control
same,T/C,"dose: 250.0 mg/kg/injection, schedule: Q04DX003 (ip), vehicle: suspension in saline",72 % of control
